Paper PMC6030093, “Discovery of peptide probes to modulate oxytocin-type receptors of insects” (Scientific Reports, 2018)
“Also recorded” adds a separate entry of the source. Positions of bridges follow the written chain, without caps; N, C: chain ends. No end group written: not given here.

Tests used:
[1] = system: T. castaneum inotocin receptor; test: IP1 accumulation, agonist mode (T. castaneum inotocin receptor); type: cell-based, Tribolium castaneum
Excerpt: (§1) The T. castaneum receptor gene was kindly provided by Yoonseong Park (Kansas State University)[8], whereas the L. niger inotocin receptor gene had been cloned and sequenced as per Di Giglio et al.[11]. Both receptor constructs were subsequently cloned into the pEGFP-N1 expression plasmid, generating C-terminal EGFP fusion receptor proteins. Receptors were expressed in HEK293 cells (ATCC, CRL 1573) via transfection using the Lipofectamine 2000® transfection reagent. The use of mammalian cell lines to study the receptors of insects and other invertebrate species, in the same vain as orphan receptors from mammalian genomes, is considered a standard procedure. Various studies have utilized this approach[8],[9],[11]. Whilst such mammalian cell lines may not completely mimic insect cell biology, GPCRs and their signalling is highly homologous across the animal kingdom; it would be unlikely that the insect receptors would mis-fold in a mammalian cell line. Nevertheless, during assay optimization we routinely monitored surface expression of GFP-tagged receptors, and we only proceeded to pharmacological assays, if the receptor localized at the cell membrane. Moreover, most biochemical cell-based functional assays are optimized for mammalian cells. Whilst it is possible that insect cells could be utilized for these assays, it is unknown whether they endogenously express inotocin receptors. […] Accordingly, mammalian cells were cultured in DMEM supplemented with 10% FBS and penicillin/streptomycin (100 U mL^−1) and plated in 6-well plates prior to transfection. When cells had reached confluency, cells were transfected as per the manufacturer’s protocol with 2.5 µg per well of each respective receptor construct using a DNA:Lipofectamine 2000® ratio of 1:3 prepared in serum-free DMEM. After 4–6 h, cells were dissociated by trituration and replated into white opaque 384-well plates (CellStar®, Greiner, Kremsmünster, Austria) at approximately 10,000 cells per well. Cells were cultured for approximately 38–48 h in a humidified incubator at 37 °C and an atmosphere of 5% CO2, and then assayed for second messenger production. Verification of receptor expression was assessed via microscopic examination of membrane localised GFP fluorescence.
(§2) Quantitative measurements of receptor-mediated inositol 1-phosphate (IP1) were performed by competitive immunoassay utilising the IP-One assay kit (CisBio, France). HEK293 cells were prepared as described above and then assayed as per the manufacturer’s protocol. Briefly, at the time of assay, the culture media was removed from cells, and then replaced with IP-One stimulation buffer (HEPES 10 mM, CaCl2 1 mM, MgCl2 0.5 mM, KCl 4.2 mM, NaCl 146 mM, glucose 5.5 mM, LiCl 50 mM, pH 7.4). […] The stimulation was terminated by lysis and the simultaneous addition of homogenous time-resolved fluorescence resonance energy transfer reagents. […] Fluorescence emission measurements at 620 nm and 665 nm were performed using a FlexStation3 plate reader (Molecular Devices, Sunnyvale, CA) or Spark Multimode plate reader (Tecan, Männedorf, Switzerland) at an excitation wavelength of 340 nm. Results were analysed as a ratio of fluorescence intensities of 665 nm to 620 nm.
(§3) Data from cellular assays were analysed using GraphPad Prism 7.03 (GraphPad Software, San Diego). […]

[2] = system: L. niger inotocin receptor; test: IP1 accumulation, agonist mode (L. niger inotocin receptor); type: cell-based, Lasius niger; details: for Emax / LogEC50: HEK293 cells expressing L. niger receptor (C-terminal EGFP fusion), IP-One HTRF assay, mean ± S.E.M. from at least three independent experiments in triplicate; for Emax: 1 h at 37 °C; for LogEC50: pH 7.4, 1 h at 37 °C
Excerpt: as §1
Quantitative measurements of receptor-mediated inositol 1-phosphate (IP1) were performed by competitive immunoassay utilising the IP-One assay kit (CisBio, France). HEK293 cells were prepared as described above and then assayed as per the manufacturer’s protocol. Briefly, at the time of assay, the culture media was removed from cells, and then replaced with IP-One stimulation buffer (HEPES 10 mM, CaCl2 1 mM, MgCl2 0.5 mM, KCl 4.2 mM, NaCl 146 mM, glucose 5.5 mM, LiCl 50 mM, pH 7.4). Cells were allowed to equilibrate in the stimulation buffer at 37 °C for 15 min, followed by addition of peptide ligands (to final concentrations of 0.1 pM – 10 µM) for subsequent stimulation for 1 h at 37 °C. The stimulation was terminated by lysis and the simultaneous addition of homogenous time-resolved fluorescence resonance energy transfer reagents. The lysates were incubated for a minimum of 1 h at room temperature. Fluorescence emission measurements at 620 nm and 665 nm were performed using a FlexStation3 plate reader (Molecular Devices, Sunnyvale, CA) or Spark Multimode plate reader (Tecan, Männedorf, Switzerland) at an excitation wavelength of 340 nm. Results were analysed as a ratio of fluorescence intensities of 665 nm to 620 nm.
Data from cellular assays were analysed using GraphPad Prism 7.03 (GraphPad Software, San Diego). Concentration-response data were fitted to three- or four-parameter logistic equations to derive estimates of potency (LogEC50) and efficacy (Emax), relative to the maximal inotocin control response. Data from agonist-antagonist interaction experiments were fit to a Schild regression analysis.

[3] = system: T. castaneum inotocin receptor; test: Antagonism of inotocin-mediated IP1 accumulation, Schild analysis; type: cell-based, Tribolium castaneum; details: HEK293, IP1
Excerpt: as §1, with “After 4–6 h, cells were dissociated by trituration and replated into white opaque 384-well plates (CellStar®, Greiner, Kremsmünster, Austria) at approximately 10,000 cells per well. Cells were cultured for approximately 38–48 h in a humidified incubator at 37 °C and an atmosphere of 5% CO2, and then assayed for second messenger production.” left out
as §2, with “France).” for “France). HEK293 cells were prepared as described above and then assayed as per the manufacturer’s protocol. Briefly, at the time of assay, the culture media was removed from cells, and then replaced with IP-One stimulation buffer (HEPES 10 mM, CaCl2 1 mM, MgCl2 0.5 mM, KCl 4.2 mM, NaCl 146 mM, glucose 5.5 mM, LiCl 50 mM, pH 7.4).”
as §3

[4] = system: human vasopressin V1a receptor; details: cited from earlier work
Excerpt: (§4) Compared to the level of identity between the T. castaneum inotocin receptor and its human counterparts (approximately 37–40% similarity ...

human oxytocin receptor = details: cited from earlier work
Excerpt: as §4

[5] = system: T. castaneum inotocin receptor; details: initial characterisation of the T. castaneum receptor; cited from earlier work
Excerpt: In parallel to characterising the inotocin receptor activity of kalata B7, we sought to identify an antagonist peptide. Our recent study with the L. niger inotocin peptide-receptor system[11] further emphasised the structural homology shared between inotocin receptors and human oxytocin/vasopressin receptors (Fig. 2, Table 1). […] Given this homology, we were interested in the ability of the oxytocin/V1a receptor anta ...

[6] = target: Tribolium castaneum inotocin receptor (Tribolium castaneum)
[7] = target: Lasius niger inotocin receptor (Lasius niger)
[8] = T. castaneum receptor, IP1 accumulation, HEK293
[9] = L. niger receptor, IP1 accumulation, HEK293

Molecule: atosiban
- agonist activity (in words) [1, 8]: lacked agonist activity
- Emax [2]: 89.9 ± 4.5 % inotocin max. response
- LogEC50 [2]: −5.81 ± 0.12 Log[M]
- agonist activity (in words) [2, 9]: partial agonist
- antagonism of inotocin (in words) ([3]; dextral displacement of the inotocin concentration-response curve): competitively inhibits the T. castaneum inotocin receptor; also recorded: selectively antagonises the T. castaneum receptor
- estimated functional affinity ([3]; from Schild analysis (pA2), competitive antagonism of inotocin): approximately 93 nM
- pA2 ([3]; inotocin 1 pM – 10 µM in absence or presence of 100 nM, 1 µM, 3 µM, 10 µM atosiban, Schild analysis, mean ± S.E.M. of three independent experiments in triplicate): 7.03 ± 0.086
- Schild Slope ([3]; inotocin 1 pM – 10 µM in absence or presence of 100 nM, 1 µM, 3 µM, 10 µM atosiban, mean ± S.E.M. of three independent experiments in triplicate): 1.00 ± 0.085

Molecule: kalata B7: plant-derived cyclic peptide (cyclotide) from Oldenlandia affinis, synthesised by Fmoc-SPPS and native chemical ligation (cyclo(GLPVCGETCTLGTCYTQGCTCSWPICKRN); also: oxidized form, disulfides not placed)
- activity at human vasopressin V1a receptor (in words) [4]: partial agonist
- activity at human oxytocin receptor (in words) (human oxytocin receptor): partial agonist
- Emax ([1]; HEK293 cells expressing T. castaneum receptor (C-terminal EGFP fusion), IP-One HTRF assay, 1 h at 37 °C, mean ± S.E.M. from at least three independent experiments in triplicate): 60.3 ± 9.6 % inotocin max. response
- LogEC50 ([1]; HEK293 cells expressing T. castaneum receptor (C-terminal EGFP fusion), IP-One HTRF assay, pH 7.4, 1 h at 37 °C, mean ± S.E.M. from at least three independent experiments in triplicate): −5.14 ± 0.22 Log[M]
- agonist activity (in words) [1, 8]: weak partial agonist
- EC50 ([1]; T. castaneum receptor, IP1 accumulation, HEK293, read-out: potency): 7.2 µM
- Emax [2]: 86.5 ± 4.7 % inotocin max. response
- LogEC50 [2]: −5.66 ± 0.10 Log[M]
- agonist activity (in words) [2, 9]: weak partial agonist
- EC50 ([2]; L. niger receptor, IP1 accumulation, HEK293, read-out: potency): 2200 nM
- effects on cell viability (HEK293 cells): did not observe negative effects on cell viability

Molecule: oxytocin: reported agonist of the T. castaneum receptor
- agonist activity at T. castaneum receptor (in words) [5]: agonist

B1: inotocin (peptide)
peptide: CLITNCPRG-NH2
modifications: disulfide 1-6 (inferred)
- Emax of receptor-mediated IP1 accumulation in HEK293 cells expressing the T. castaneum inotocin receptor (the reference response) [6]: 100%
- LogEC50 of receptor-mediated IP1 accumulation in HEK293 cells expressing the T. castaneum inotocin receptor [6]: -9.63 Log[M]
- Emax of receptor-mediated IP1 accumulation in HEK293 cells expressing the L. niger inotocin receptor (the reference response) (% inotocin max. response) [7]: 100
- LogEC50 of receptor-mediated IP1 accumulation in HEK293 cells expressing the L. niger inotocin receptor [7]: -10.2 Log[M]

B2: kalata B7 (peptide)
peptide: cyclo(GLPVCGETCTLGTCYTQGCTCSWPICKRN)
modifications: disulfide (positions not given here); also: oxidized, disulfide pairing not given here
- Emax of receptor-mediated IP1 accumulation in HEK293 cells expressing the T. castaneum inotocin receptor (% inotocin max. response) [6]: 60.3
- LogEC50 of receptor-mediated IP1 accumulation in HEK293 cells expressing the T. castaneum inotocin receptor [6]: -5.14 Log[M]
- Emax of receptor-mediated IP1 accumulation in HEK293 cells expressing the L. niger inotocin receptor (% inotocin max. response) [7]: 86.5
- LogEC50 of receptor-mediated IP1 accumulation in HEK293 cells expressing the L. niger inotocin receptor [7]: -5.66 Log[M]
